This experiment has as its target T1, KDM4E (Homo sapiens, UniProt B2RXH2).
T1 construct: KDM4DM1-L359,[39]; KDM4EM1-R336,[30]; His6 (N); made in house; host or cells: Escherichia coli
T1 sequence (B2RXH2 1-336): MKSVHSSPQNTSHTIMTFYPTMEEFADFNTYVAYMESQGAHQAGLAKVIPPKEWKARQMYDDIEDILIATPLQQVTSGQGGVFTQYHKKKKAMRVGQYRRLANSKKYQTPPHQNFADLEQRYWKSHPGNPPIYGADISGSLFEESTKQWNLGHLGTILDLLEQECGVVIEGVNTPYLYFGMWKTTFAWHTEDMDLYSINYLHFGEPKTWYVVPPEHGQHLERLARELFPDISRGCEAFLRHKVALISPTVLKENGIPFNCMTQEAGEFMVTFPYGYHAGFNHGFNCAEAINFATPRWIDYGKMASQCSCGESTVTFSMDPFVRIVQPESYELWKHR
In words: LC-MS demethylation activity assay, KDM4E. Format: biochemical. Particulars: room temperature; for substrate conversion (demethylation) by KDM4E / di-methylated product formed by KDM4E / mono-methylated product formed by KDM4E: 2 μM KDM4E, 10 μM peptide; for substrate conversion (demethylation) by KDM4E / KDM4E demethylation activity, T: 10 μM FAS, 100 μM LAA, 20 μM 2OG; for substrate conversion (demethylation) by KDM4E: HEPES pH 7.5, 2 h; for di-methylated product formed by KDM4E / mono-methylated product formed by KDM4E: standard conditions, 2 h; for KDM4E demethylation activity, T: 2 μM KDM, 10 μM H1/H3 peptide, 50 mM HEPES pH 7.5, 2 h, T (tri-) initial methylation state. In a few lines:
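H1 isoform peptides (10 μM) were incubated 2 h at room temperature with 2 μM recombinant N-terminally His6-tagged catalytic domains in 50 mM HEPES pH 7.5 containing FAS (10 μM), ascorbate (100 μM) and 2OG (20 μM). Reactions were quenched with formic acid (1% final), and demethylation was analysed by LC-MS (Q-TOF).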

Square brackets hold non-standard residues; d marks the D form. Ends that are not written are not given here. Lys(Me3) = C[N+](C)(C)CCCC[C@H](N)C(=O)O

With “KKKAAK[Lys(Me3)]AGGTPRKA [Peptide H1.2K26me3, 15-mer linker histone H1.2 residues 20-34 peptide, tri-methylated K26]”, the “substrate conversion (demethylation) by KDM4E” value (from here on “substrate conversion”) is approximately 80%; the “di-methylated product formed by KDM4E” value is given as approximately 50%; the “mono-methylated product formed by KDM4E” value was approximately 30%; the “KDM4E demethylation activity, T” value was “● [green] (green dots indicate good demethylation (>50% conversion))”.
“KKKAA[Lys(Me3)]KAGGTPRKA [Peptide H1.2K25me3, 15-mer linker histone H1.2 residues 20-34 peptide, tri-methylated K25]”: the “substrate conversion” value was approximately 80%; the “di-methylated product formed by KDM4E” value is approximately 50%; the “mono-methylated product formed by KDM4E” value was approximately 30%; the “KDM4E demethylation activity, T” value was “● [red]”.
Consider “KKKAR[Lys(Me3)]SAGAAKRKA [Peptide H1.4K25me3, 15-mer linker histone H1.4 residues 20-34 peptide, tri-methylated K25]”, for which the “substrate conversion” value is approximately 95%; the “di-methylated product formed by KDM4E” value is on record as approximately 28%; the “mono-methylated product formed by KDM4E” value was approximately 67%; the “KDM4E demethylation activity, T” value was “● [red]”.
For “KKKATK[Lys(Me3)]AAGAGAAK [Peptide H1.5K26me3, 15-mer linker histone H1.5 residues 20-34 peptide, tri-methylated K26]”, the “di-methylated product formed by KDM4E” value is given as approximately 40%; the “mono-methylated product formed by KDM4E” value is approximately 16%; the “KDM4E demethylation activity, T” value is “● [green] (green dots indicate good demethylation (>50% conversion))”.
With “KKKA[Lys(Me3)]KAGATAGKRK [Peptide H1.3K24me3, 15-mer linker histone H1.3 residues 20-34 peptide, tri-methylated K24]”, the “substrate conversion” value is reported as approximately 80%; the “di-methylated product formed by KDM4E” value was approximately 42%; the “mono-methylated product formed by KDM4E” value was approximately 38%; the “KDM4E demethylation activity, T” value is “● [green] (green dots indicate good demethylation (>50% conversion))”.

These data come from article PMC12363342, “Investigating the N-terminal linker histone H1 subtypes as substrates for JmjC lysine demethylases” (RSC Chemical Biology, 2025).
